Our source for the Activity values is ChEMBL document CHEMBL1158865, “Mueggelone, a novel inhibitor of fish development from the fresh water cyanobacterium Aphanizomenon flos-aquae” (1997).

The species named for assay [1] is Danio rerio. Put plainly: Inhibition of larval development in zebra fish assessed as tail bending at 100 ug/mL after 5 days. It counts as functional, organism-based.
Assay [2] is filed under the species Danio rerio. In words: Inhibition of larval development in zebra fish at 10 ug/mL. It is filed as functional, organism-based.
Assay [3] concerns Danio rerio. In words: Inhibition of larval development in zebra fish assessed as induction of edema in heart at 100 ug/mL after 3 days. It counts as functional, organism-based.
The species entered for assay [4] is Danio rerio. In words: Inhibition of larval development in zebra fish assessed as tail bending at 100 ug/mL after 3 days. The arrangement: scale not given: the % may be the effect or the level left. It is filed as functional.
The species named for assay [5] is Danio rerio. Put plainly: Inhibition of larval development in zebra fish assessed as effect on larval mortality at 10 ug/mL. It counts as functional, organism-based.
The species named for assay [6] is Danio rerio. In words: Inhibition of larval development in zebra fish assessed as effect on larval mortality at 100 ug/mL. It is filed as functional, organism-based.
Assay [7] deals with Danio rerio. Put plainly: Inhibition of larval development in zebra fish assessed as induction of edema in heart at 100 ug/mL after 5 days. It counts as functional, organism-based.
For assay [8], the species on record is Danio rerio. Put plainly: Inhibition of larval development in zebra fish assessed as induction of thrombosis in heart at 10 ug/mL after 3 days. It is filed as functional, organism-based.
The species named for assay [9] is Danio rerio. Put plainly: Inhibition of larval development in zebra fish assessed as mortality at 10 ug/mL after 24 hrs. It is filed as functional. The arrangement: scale not given: the % may be the effect or the level left.
The species entered for assay [10] is Danio rerio. In words: Inhibition of larval development in zebra fish at 1 ug/mL. It is filed as functional, organism-based.
The species entered for assay [11] is Danio rerio. In words: Inhibition of larval development in zebra fish assessed as retardation of blood circulatory system development at 10 ug/mL after 32 hrs. It counts as functional, organism-based.
Assay [12] concerns Danio rerio. Put plainly: Inhibition of larval development in zebra fish assessed as induction of edema in heart at 10 ug/mL after 3 days. It is filed as functional, organism-based.
Assay [13] is filed under the species Danio rerio. In words: Inhibition of larval development in zebra fish assessed as retardation of blood circulatory system development at 10 ug/mL after 24 hrs. It is filed as functional, organism-based.
The species named for assay [14] is Danio rerio. Put plainly: Inhibition of larval development in zebra fish assessed as mortality at 10 ug/mL after 48 hrs. It counts as functional. More on the design: scale not given: the % may be the effect or the level left.

Molecules are shown by their SMILES. Active and inactive are the calls of the source. The rule behind the calls is not given here.

With `C=C(C)[C@@H]1CC[C@]2(C)CC[C@]3(C)[C@H](CC[C@@H]4[C@@]5(C)CC[C@H](OC(C)=O)C(C)(C)[C@@H]5CC[C@]43C)[C@@H]12` [LUPENYL ACETATE], the result in the assay filed under Danio rerio [1], with Danio rerio [3] and with Danio rerio [7] was Active. Further, the outcome in the assay listed under Danio rerio [2], in the assay filed under Danio rerio [5] and in the assay listed under Danio rerio [6] was inactive. For the same molecule, the Activity in the assay filed under Danio rerio [4] came out at 30%.

Regarding `CC/C=C\C[C@@H]1O[C@H]1/C=C/C1CCCCCCCC(=O)O1` (relative stereo) [MUEGGELONE], the outcome in the assay listed under Danio rerio [8], in the assay listed under Danio rerio [11], in the assay on Danio rerio [12] and in the assay filed under Danio rerio [13] was Active. Besides, the Activity in the assay filed under Danio rerio [9] and in the assay listed under Danio rerio [14] was 45% throughout. Further, in the assay listed under Danio rerio [10], the result was inactive.
